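Method: 48-hour compound exposure of cells in 96-well plates, five concentrations, linear interpolation of endpoints. At the GI50, growth is halved.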 Active and inactive are the calls of the source. No stated cut-off is given here; in the data, active = GI50 up to about 1.1 µM and inactive = higher. Where a SMILES comes first, the peptide text is derived from it. [ ]: non-standard residue; d: D form. The star is where a group is joined. Phe(4-NO2) = N[CH](Cc1ccc([N+](=O)[O-])cc1)C(=O)O; Boc = CC(C)(C)OC(=O)*; OtBu = CC(C)(C)O*
Tests used:
Test in all cases: inhibition of tumour cell growth, NCI panel, 48 h
DLD-1 = system: DLD-1
DMS-114 = system: DMS-114
HOP-18 = system: HOP-18
KM-20L2 = system: KM-20L2
BT-549 = system: BT-549
Hs-578T = system: Hs-578T
T47D = system: T47D
SNB-78 = system: SNB-78

Structure (SMILES) | GI50 (DLD-1) | GI50 (DMS-114) | GI50 (HOP-18) | GI50 (KM-20L2) | GI50 (BT-549) | GI50 (Hs-578T) | GI50 (T47D) | GI50 (SNB-78)
Cc1nc2ccccc2c(=O)n1/N=C(\N=N\c1ccccc1Cl)c1ccccc1 | 29.1 µM (inactive) | 15.5 µM (inactive) | 27.5 µM (inactive) | 21.9 µM (inactive) | – | – | – | –
CC(C)/C(Cl)=N/OC(=O)Nc1ccc(Br)cc1 | – | – | – | – | 4.29 µM (inactive) | 21.7 µM (inactive) | 2.67 µM (inactive) | –
O=C1Nc2nnc(S)n2NC12c1ccccc1-c1ccccc12 | – | – | – | – | > 100 µM (inactive) | > 100 µM (inactive) | – | –
COc1ccc(CNc2cnc3cc(N)ccc3n2)cc1 | – | > 100 µM (inactive) | – | > 100 µM (inactive) | – | – | – | > 100 µM (inactive)
CC(=O)Oc1ccc(/C=C/C(=O)NCCOC(=O)/C=C/c2ccc(OC(C)=O)c(OC(C)=O)c2)cc1OC(C)=O | – | – | – | – | 38.7 µM (inactive) | 33.6 µM (inactive) | 20.4 µM (inactive) | –
Cc1cn(C2CC(ON3C(=O)c4ccccc4C3=O)C(CO)O2)c(=O)[nH]c1=O (stereo not drawn) | – | – | – | – | > 10 µM (inactive) | > 10 µM (inactive) | – | –
CC1(C)S[C@H](c2ccccc2C(=O)O)N[C@@H]1CC(=O)O | > 100 µM (inactive) | > 100 µM (inactive) | > 100 µM (inactive) | – | – | – | – | > 100 µM (inactive)
CC(=O)OCC1OC(N2C(=O)CC(N)=Nc3ccccc32)C(OC(C)=O)C(OC(C)=O)C1OC(C)=O (stereo not drawn) | – | – | – | – | 66.2 µM (inactive) | > 100 µM (inactive) | 20.5 µM (inactive) | –
CC(=O)C1C(=O)C(=O)N(c2cccc([N+](=O)[O-])c2)C1=O (stereo not drawn) | – | – | – | – | > 100 µM (inactive) | > 100 µM (inactive) | – | –
CCCCCCCCCCCCCC(=O)O[C@H]1CC[C@H](NC(=O)[C@H](OC)[C@H](O)[C@@H](O)[C@H](O)/C=C/C(C)C)C(=O)NC1 [BENGAMIDE A] | – | 0.00512 µM (active) | > 10 µM (inactive) | 0.0045 µM (active) | 0.953 µM (active) | 0.237 µM (active) | 0.01 µM (active) | > 10 µM (inactive)
O=c1c2cc(S(=O)(=O)Nc3ccccc3Cl)ccc2ncn1NS(=O)(=O)c1ccc(Br)cc1 | – | – | – | – | > 37.5 µM (inactive) | > 37.5 µM (inactive) | – | –
Cn1c(=O)c2nc(Nc3ccccc3)[nH]c2n(C)c1=O | – | – | – | – | – | – | > 10 µM (inactive) | –
COC(=O)CCC1(O)C=CC(=O)C=C1 | – | – | – | – | 58.5 µM (inactive) | 29.4 µM (inactive) | – | –
COC(=O)CCCC(=O)NC1=C(Nc2ccc(OC)cc2)C(=O)c2ccccc2C1=O | – | – | – | – | 19.5 µM (inactive) | 22.8 µM (inactive) | 41.3 µM (inactive) | –
COc1ccc(/C=N/N=C(\N)NO)c(O)c1 | – | – | – | – | > 10 µM (inactive) | > 10 µM (inactive) | > 10 µM (inactive) | –
C=C(C)C1CC/C(C)=C/CCC2(C)OC2CC/C(CO)=C\C1O (stereo not drawn) | – | – | – | – | – | 15.7 µM (inactive) | > 100 µM (inactive) | –
Cc1nc(=O)[nH]c2s/c(=N/C3CCCCC3)n(C3CCCCC3)c(=O)c12 | – | – | – | – | – | – | > 100 µM (inactive) | –

Structure (SMILES) | GI50 (DLD-1) | GI50 (DMS-114) | GI50 (HOP-18) | GI50 (KM-20L2) | GI50 (BT-549) | GI50 (Hs-578T) | GI50 (T47D) | GI50 (SNB-78)
CC1(C)C2CCC1(C)C(N/C(=C(/C(Cl)=C(Cl)Cl)[N+](=O)[O-])n1nnc3ccccc31)C2 (stereo not drawn) | – | – | – | – | 22.2 µM (inactive) | 17.3 µM (inactive) | 32.7 µM (inactive) | –
CCC(=O)C(C(C)/C=C/CCSc1ccccc1)C(O)CCCCCC(=O)OC (stereo not drawn) | – | – | – | – | > 100 µM (inactive) | – | – | –
O=C(/C=C1\Nc2ccccc2C(=O)N1c1ccc(Cl)cc1)c1ccncc1 | > 100 µM (inactive) | > 100 µM (inactive) | – | > 100 µM (inactive) | – | – | – | > 100 µM (inactive)
CC[C@@]12N=C(N(C)C)C[C@]1(O)ON=C2C | > 100 µM (inactive) | > 100 µM (inactive) | > 100 µM (inactive) | > 100 µM (inactive) | – | – | – | –
COC(=O)C1=C(C(=O)NNc2ccccc2)N(c2cccnc2Cl)C(c2ccccc2)=CC1c1ccccc1 (stereo not drawn) | – | – | – | – | 56.8 µM (inactive) | > 100 µM (inactive) | 26.1 µM (inactive) | –
O=C1c2ccccc2-c2oc(=O)c3ccccc3c21 | – | – | – | – | – | > 100 µM (inactive) | > 100 µM (inactive) | –
N=C(N)C1CN(CC=O)C(=O)NC1=O (stereo not drawn) | – | – | – | – | > 100 µM (inactive) | – | > 100 µM (inactive) | –
CCCCC1=C(C(=O)N2CCOCC2)C2(OCCO2)C1Cl (stereo not drawn) | – | – | – | – | – | 30.1 µM (inactive) | 46 µM (inactive) | –
C=CC(=O)N1C/C(=C\c2ccccc2)C(=O)/C(=C/c2ccccc2)C1 | 0.458 µM (active) | 1.01 µM (active) | 3.24 µM (inactive) | 1.66 µM (inactive) | 1.71 µM (inactive) | – | 3.75 µM (inactive) | –
C=CO/N=[N+](\[O-])N(CC)CC | – | – | – | – | – | > 100 µM (inactive) | > 100 µM (inactive) | –
CC[C@@H]1C[C@@H](O)[C@@H]2[C@H](O)[C@H](O)CN2C1 | – | – | – | – | > 100 µM (inactive) | > 100 µM (inactive) | > 100 µM (inactive) | –
COC(=O)C(Cc1ccc([N+](=O)[O-])cc1)NC(=O)C(CC(=O)OC(C)(C)C)NC(=O)OC(C)(C)C (stereo not drawn) (Boc-Asp(OtBu)-[Phe(4-NO2)]-OMe; configuration not given here) | – | – | – | – | > 100 µM (inactive) | 20.1 µM (inactive) | > 100 µM (inactive) | –
COc1ccc2c(c1)-c1nc(=S)n(CCCN(C)C)c3ccc([N+](=O)[O-])c(c13)N2 | – | – | – | – | 7.21 µM (inactive) | 1.72 µM (inactive) | 18.7 µM (inactive) | –
Cc1n[nH]c(=O)n1C1CCCC1 | – | – | – | – | > 100 µM (inactive) | > 100 µM (inactive) | > 100 µM (inactive) | –
CCOC(=O)NC(C(F)(F)F)(C(F)(F)F)P(=O)(OCC)OCC | – | – | – | – | 34 µM (inactive) | 16.9 µM (inactive) | 42.1 µM (inactive) | –
COC(=O)C1CCC(=O)N1CN(C(C)=O)c1ccccc1 (stereo not drawn) | – | – | – | – | – | > 100 µM (inactive) | > 100 µM (inactive) | –

— ChEMBL document CHEMBL1201862, “PubChem BioAssay data set” (2004)
